# In patent US20050106558A1, “Library of modified structural genes or capsid modified particles useful for the identification of viral clones with desired cell tropism” (priority 2001, published 2005):
# What was measured:
# M-07e cells = assay: Transduction efficiency of rAAV-GFP clones on M-07e cells (FACS), with or without competitors; assay type: cell-based, human
# Protocol: Cells were seeded in 96 or 24 well plates (Nunc, Wiesbaden, Germany) and infected with rAAV-GFP clones, harvested 48 hrs p.i., washed and resuspended in 1 ml PBS. The percentage of GFP expressing cells was determined by flow cytometry with a Coulter Epics XL-MCL (Beckman Coulter, Krefeld, Germany). A minimum of 5000 cells were analyzed for each sample. Infectivity of the retargeted mutants was determined in the presence or absence of various concentrations of GRGDTP or GRGES peptides (Bachem, Bubendorf, Swiss) or 5 I.U./[II soluble heparin (Braun, Melsungen, Germany).
# The selected capsid mutants were tested for their ability to transduce M-07e cells (FIG. 5a). At a genomic particle/cell ratio of 2×10^4, the mutants rAAV-M07A and rAAV-M07T transduced 50±2.5% and 47±2.7% of M-07e cells, respectively, representing a 100 and 94 fold increase in comparison to rAAV-wt transduction efficiency (0.5±0.01%). In contrast, rAAV-MecA and rAAV-MecB transduced M-07e cells with an efficiency of only 8.1±1.5% and 16±2%. The vector rAAV-L14, carrying an RGD motif inserted at position 587 (Girod A et al (1999) supra), was also compared. […] This highlighted the advantage of the combinatorial approach when compared with the simple insertion of an exogenous sequence.
# We then examined whether the transduction of M-07e cells by rAAV-M07A and rAAV-M07T vectors was specifically mediated by the amino acids inserted at position 587. In the capsid of wt AAV, the region around position 587 is involved in the binding to heparan sulfate proteoglycan (HSPG) (Nicklin S A et al. (2001) Mol. Ther. 4, 174-81; Wu P. et al. (2000) J. Virol. 74, 8635-47), the primary receptor of AAV-2 (Summerford C and Samulski J (1998) J. Virol. 72, 1438-45). Pre-incubation with soluble heparin, an HSPG analogue and competitor, inhibited transduction of M-07e cells by rAAV-MecB but not by rAAV-M07A, rAAV-M07T and rAAV-MecA (FIG. 5a). […] This effect was concentration-dependent (FIG. 5b). […]
# [1] = biological target: integrin receptor expressed on the surface of the target cells; assay: cell-based or functional assay
substance,measurement,setting,value
GRGES,effect of inactive GRGES peptide on transduction,"M-07e cells; M-07e cells, 450 μM",no effect
RGDS,reduction of transduction efficiencies by competing RGDS peptide,M-07e cells; M07e cells incubated with 100 uM peptide prior to infection,more than 50%
RGES,effect of RGES peptide pre-incubation on infection,M-07e cells; M07e cells,failed to inhibit
rAAV-M07A (RGDAVGV insertion) (from UniProt P03135 1-587; P03135 588-735),reduction of M07e cell transduction after incubation of the cells with 100 uM RGDS peptide,[1],> 50%
rAAV-M07T (RGDTPTS insertion) (from UniProt P03135 1-587; P03135 588-735),reduction of M07e cell transduction after incubation of the cells with 100 uM RGDS peptide,[1],> 50%
